Source: ChEMBL document CHEMBL5465560, “Selectivity Literature for EUbOPEN Chemogenomic Library” (2024)
One block for each compound: values may come before it.

Columns and labels:
[1] = target: Diacylglycerol kinase beta (Homo sapiens) (UniProt Q9Y6T7); assay: Selectivity interaction (Kinase panel (literature)) EUB0001199aCl DGKB; settings: at 1 µM
[2] = target: Protein kinase C delta type (Homo sapiens) (UniProt Q05655); assay: Selectivity interaction (Upstate Kinase Profiler service (Millipore)) EUB0000056c PRKCD; settings: at 1 µM
Protein kinase C delta type (Homo sapiens), sequence (Q05655 whole entry, looked up): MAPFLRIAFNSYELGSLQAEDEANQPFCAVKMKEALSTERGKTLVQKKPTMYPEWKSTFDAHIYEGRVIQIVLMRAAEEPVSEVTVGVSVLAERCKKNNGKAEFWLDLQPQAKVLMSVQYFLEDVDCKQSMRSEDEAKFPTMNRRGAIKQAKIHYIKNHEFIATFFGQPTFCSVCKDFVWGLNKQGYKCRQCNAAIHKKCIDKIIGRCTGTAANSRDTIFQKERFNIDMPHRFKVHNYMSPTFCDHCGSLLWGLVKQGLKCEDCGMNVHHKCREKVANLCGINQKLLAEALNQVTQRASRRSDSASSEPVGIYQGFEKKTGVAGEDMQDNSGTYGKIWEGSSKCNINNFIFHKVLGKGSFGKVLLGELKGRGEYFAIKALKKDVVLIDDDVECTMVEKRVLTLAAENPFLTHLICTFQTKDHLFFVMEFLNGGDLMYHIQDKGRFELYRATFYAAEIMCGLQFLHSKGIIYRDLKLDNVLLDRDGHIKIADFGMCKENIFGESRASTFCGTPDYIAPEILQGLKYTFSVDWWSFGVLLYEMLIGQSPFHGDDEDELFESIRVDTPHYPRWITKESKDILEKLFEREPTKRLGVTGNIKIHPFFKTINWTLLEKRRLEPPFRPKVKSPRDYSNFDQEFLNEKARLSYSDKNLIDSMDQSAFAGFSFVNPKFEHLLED

[3] = target: Glycogen synthase kinase-3 beta (Homo sapiens, UniProt P49841); assay: Selectivity interaction (Upstate Kinase Profiler service (Millipore)) EUB0000056c GSK3B; settings: at 1 µM
Glycogen synthase kinase-3 beta, sequence (P49841 whole entry, looked up): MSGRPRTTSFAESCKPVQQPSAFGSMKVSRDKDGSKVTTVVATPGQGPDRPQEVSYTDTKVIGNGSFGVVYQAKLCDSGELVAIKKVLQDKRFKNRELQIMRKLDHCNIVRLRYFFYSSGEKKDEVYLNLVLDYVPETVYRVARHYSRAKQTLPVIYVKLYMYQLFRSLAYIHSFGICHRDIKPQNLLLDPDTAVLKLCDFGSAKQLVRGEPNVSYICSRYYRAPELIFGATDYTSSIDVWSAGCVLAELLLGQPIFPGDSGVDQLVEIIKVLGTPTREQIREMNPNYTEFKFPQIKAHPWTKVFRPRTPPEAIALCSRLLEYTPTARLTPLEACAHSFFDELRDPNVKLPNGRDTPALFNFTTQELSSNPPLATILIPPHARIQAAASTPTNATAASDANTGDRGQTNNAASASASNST

[4] = target: Serine/threonine-protein kinase B-raf (Homo sapiens) (UniProt P15056); assay: Selectivity interaction (Kinase panel (Invitrogen)) EUB0000639a BRAF; settings: at 200 nM
Serine/threonine-protein kinase B-raf (Homo sapiens), sequence (P15056 whole entry): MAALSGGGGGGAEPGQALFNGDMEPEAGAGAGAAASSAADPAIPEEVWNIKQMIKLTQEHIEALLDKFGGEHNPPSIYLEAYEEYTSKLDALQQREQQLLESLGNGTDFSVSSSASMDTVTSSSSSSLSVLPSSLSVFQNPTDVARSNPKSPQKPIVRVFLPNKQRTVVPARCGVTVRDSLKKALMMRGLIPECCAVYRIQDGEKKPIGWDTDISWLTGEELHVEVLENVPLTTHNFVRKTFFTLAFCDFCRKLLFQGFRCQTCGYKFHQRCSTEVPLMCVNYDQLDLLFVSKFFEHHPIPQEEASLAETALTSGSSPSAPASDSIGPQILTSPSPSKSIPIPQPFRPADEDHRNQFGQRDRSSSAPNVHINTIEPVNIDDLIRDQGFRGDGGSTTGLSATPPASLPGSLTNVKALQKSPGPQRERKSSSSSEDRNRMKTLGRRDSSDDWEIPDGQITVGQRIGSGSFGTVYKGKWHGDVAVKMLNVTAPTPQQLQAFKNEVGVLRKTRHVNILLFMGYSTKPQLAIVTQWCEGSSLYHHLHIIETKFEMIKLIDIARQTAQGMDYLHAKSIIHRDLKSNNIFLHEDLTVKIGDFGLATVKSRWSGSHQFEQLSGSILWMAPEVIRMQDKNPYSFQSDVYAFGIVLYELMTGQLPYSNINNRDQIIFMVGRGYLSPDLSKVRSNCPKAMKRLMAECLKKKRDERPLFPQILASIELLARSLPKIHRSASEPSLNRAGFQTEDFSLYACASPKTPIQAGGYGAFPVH

[5] = target: T1, Serine/threonine-protein kinase tousled-like 1 (Homo sapiens) (UniProt Q9UKI8); assay: Selectivity interaction (ActivX KiNativ screen (kinase selectivity in THP-1 cell lysates)) EUB0000639a TLK1; assay type: subcellular; settings: lysate, at 0.04 µM
T1 sequence (whole entry): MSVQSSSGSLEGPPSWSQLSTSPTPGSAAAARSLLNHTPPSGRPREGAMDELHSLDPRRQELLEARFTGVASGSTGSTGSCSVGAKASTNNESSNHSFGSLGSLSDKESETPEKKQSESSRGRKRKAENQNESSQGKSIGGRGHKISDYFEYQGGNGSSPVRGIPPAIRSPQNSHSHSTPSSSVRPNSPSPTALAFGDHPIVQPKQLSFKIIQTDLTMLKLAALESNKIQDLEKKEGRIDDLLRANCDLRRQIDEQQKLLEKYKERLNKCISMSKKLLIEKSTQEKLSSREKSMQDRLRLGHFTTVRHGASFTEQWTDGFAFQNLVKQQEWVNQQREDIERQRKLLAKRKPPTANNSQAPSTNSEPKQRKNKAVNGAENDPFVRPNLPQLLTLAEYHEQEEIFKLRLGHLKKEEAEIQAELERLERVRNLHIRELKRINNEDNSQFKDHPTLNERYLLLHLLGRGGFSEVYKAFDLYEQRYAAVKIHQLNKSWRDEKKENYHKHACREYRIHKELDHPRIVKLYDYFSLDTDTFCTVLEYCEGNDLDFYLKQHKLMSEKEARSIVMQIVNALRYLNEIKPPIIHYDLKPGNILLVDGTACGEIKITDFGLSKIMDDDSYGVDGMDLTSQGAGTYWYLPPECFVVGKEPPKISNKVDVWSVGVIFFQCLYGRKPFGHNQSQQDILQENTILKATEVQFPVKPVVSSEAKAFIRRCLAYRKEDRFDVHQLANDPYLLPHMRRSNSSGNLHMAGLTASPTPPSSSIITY

[6] = target: cAMP-dependent protein kinase catalytic subunit alpha (Homo sapiens, UniProt P17612); assay: Selectivity interaction (ProQinase) EUB0000171b PRKACA
[7] = target: T2, MAP/microtubule affinity-regulating kinase 4 (Homo sapiens) (UniProt Q96L34); assay: Selectivity interaction (KinomeScan (DiscoverX)) EUB0001049a MARK4; settings: at 1 µM
T2 sequence (whole entry): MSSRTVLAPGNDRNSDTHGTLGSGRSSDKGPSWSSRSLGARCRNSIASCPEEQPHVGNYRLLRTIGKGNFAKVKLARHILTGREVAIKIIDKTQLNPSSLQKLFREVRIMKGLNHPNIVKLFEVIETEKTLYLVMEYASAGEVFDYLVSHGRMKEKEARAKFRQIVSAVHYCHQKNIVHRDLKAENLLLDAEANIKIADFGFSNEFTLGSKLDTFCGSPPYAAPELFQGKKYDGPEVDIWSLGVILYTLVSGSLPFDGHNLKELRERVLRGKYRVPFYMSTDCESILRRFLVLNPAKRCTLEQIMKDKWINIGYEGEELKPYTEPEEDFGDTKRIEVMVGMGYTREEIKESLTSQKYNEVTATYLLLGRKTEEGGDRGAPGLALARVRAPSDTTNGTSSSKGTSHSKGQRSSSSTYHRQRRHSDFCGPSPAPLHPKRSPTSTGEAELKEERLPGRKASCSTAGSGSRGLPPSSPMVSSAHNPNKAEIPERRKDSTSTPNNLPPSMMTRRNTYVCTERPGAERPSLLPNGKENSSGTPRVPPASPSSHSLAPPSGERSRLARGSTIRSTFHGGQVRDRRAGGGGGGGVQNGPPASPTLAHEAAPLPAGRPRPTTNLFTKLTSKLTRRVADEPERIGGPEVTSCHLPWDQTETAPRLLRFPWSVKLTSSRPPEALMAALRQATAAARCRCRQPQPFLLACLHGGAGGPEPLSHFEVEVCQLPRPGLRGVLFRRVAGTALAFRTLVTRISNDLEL

[8] = target: T3, Serine/threonine-protein kinase Nek11 (Homo sapiens) (UniProt Q8NG66); assay: Selectivity interaction (Ambit KINOMEscan and KiNATiv profiling in Jurkat cells) EUB0000090b NEK11; assay type: cell-based; settings: at 1 µM
T3 sequence (whole entry): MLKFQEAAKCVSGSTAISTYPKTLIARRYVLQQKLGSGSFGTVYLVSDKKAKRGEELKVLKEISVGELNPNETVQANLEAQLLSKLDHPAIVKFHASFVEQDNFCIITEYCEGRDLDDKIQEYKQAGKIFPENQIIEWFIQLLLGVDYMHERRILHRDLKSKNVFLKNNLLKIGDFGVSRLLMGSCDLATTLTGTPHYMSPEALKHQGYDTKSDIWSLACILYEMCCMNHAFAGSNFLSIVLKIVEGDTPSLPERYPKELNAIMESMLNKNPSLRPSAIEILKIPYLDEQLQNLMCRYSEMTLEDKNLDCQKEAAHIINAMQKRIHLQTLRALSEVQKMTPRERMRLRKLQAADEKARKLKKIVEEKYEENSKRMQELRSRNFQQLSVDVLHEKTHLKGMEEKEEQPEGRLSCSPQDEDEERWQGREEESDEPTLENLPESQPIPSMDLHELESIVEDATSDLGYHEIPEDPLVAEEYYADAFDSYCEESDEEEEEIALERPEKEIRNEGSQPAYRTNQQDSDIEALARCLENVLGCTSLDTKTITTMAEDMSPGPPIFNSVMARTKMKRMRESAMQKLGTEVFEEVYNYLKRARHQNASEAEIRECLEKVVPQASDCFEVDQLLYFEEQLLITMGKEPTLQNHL

[9] = target: Ribosomal protein S6 kinase alpha-1 (Homo sapiens, UniProt Q15418); assay: Selectivity interaction (Kinase panel (KiNativ target engagement assay in Jurkat cells)) EUB0001635a RPS6KA1; assay type: cell-based; settings: Selectivity number of off-targets 0.0, Selectivity number of targets 233.0, Source Knowledge https://www.sciencedirect.com/science/article/pii/S2451945619300674?via%3Dihub, at 1 µM
Ribosomal protein S6 kinase alpha-1, sequence (Q15418 whole entry, canonical isoform): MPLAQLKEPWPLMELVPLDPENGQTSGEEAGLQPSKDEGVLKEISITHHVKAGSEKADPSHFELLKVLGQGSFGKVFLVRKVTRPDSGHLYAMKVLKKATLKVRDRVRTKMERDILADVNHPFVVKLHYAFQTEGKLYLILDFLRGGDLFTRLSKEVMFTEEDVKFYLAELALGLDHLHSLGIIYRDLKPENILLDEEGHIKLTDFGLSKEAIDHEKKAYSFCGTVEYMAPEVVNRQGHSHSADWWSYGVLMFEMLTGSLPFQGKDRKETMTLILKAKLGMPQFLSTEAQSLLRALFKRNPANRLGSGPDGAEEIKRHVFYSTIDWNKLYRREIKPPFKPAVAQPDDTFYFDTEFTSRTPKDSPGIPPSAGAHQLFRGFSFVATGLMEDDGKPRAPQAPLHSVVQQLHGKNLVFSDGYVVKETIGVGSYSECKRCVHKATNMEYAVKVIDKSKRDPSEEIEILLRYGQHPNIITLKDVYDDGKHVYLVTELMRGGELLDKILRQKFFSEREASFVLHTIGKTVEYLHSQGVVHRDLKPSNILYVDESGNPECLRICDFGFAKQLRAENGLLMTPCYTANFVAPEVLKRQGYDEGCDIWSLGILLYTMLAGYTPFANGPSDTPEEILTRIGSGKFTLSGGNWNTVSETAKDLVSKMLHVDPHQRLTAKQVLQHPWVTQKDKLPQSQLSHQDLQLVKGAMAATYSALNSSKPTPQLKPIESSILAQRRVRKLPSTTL

[10] = target: Casein kinase I isoform gamma-1 (Homo sapiens) (UniProt Q9HCP0); assay: Selectivity interaction (KinomeScan (DiscoverX)) EUB0000092b CSNK1G1; settings: at 10 µM
Casein kinase I isoform gamma-1 (Homo sapiens), sequence (Q9HCP0 whole entry, looked up, canonical isoform): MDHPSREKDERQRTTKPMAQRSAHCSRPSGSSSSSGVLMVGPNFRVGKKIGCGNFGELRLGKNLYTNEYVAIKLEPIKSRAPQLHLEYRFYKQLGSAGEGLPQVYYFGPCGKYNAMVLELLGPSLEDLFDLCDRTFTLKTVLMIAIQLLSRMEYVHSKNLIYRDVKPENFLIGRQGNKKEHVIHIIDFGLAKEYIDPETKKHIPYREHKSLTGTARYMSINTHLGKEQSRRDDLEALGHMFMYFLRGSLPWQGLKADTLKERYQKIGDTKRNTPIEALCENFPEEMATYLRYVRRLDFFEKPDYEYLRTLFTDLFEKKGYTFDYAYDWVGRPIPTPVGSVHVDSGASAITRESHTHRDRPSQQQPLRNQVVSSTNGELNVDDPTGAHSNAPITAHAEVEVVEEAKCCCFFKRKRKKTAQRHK

[11] = system: Mast/stem cell growth factor receptor Kit (Homo sapiens), P10721 [A829P]; settings: at 10 µM
Mast/stem cell growth factor receptor Kit (Homo sapiens), P10721 [A829P], sequence (P10721 whole entry A829P): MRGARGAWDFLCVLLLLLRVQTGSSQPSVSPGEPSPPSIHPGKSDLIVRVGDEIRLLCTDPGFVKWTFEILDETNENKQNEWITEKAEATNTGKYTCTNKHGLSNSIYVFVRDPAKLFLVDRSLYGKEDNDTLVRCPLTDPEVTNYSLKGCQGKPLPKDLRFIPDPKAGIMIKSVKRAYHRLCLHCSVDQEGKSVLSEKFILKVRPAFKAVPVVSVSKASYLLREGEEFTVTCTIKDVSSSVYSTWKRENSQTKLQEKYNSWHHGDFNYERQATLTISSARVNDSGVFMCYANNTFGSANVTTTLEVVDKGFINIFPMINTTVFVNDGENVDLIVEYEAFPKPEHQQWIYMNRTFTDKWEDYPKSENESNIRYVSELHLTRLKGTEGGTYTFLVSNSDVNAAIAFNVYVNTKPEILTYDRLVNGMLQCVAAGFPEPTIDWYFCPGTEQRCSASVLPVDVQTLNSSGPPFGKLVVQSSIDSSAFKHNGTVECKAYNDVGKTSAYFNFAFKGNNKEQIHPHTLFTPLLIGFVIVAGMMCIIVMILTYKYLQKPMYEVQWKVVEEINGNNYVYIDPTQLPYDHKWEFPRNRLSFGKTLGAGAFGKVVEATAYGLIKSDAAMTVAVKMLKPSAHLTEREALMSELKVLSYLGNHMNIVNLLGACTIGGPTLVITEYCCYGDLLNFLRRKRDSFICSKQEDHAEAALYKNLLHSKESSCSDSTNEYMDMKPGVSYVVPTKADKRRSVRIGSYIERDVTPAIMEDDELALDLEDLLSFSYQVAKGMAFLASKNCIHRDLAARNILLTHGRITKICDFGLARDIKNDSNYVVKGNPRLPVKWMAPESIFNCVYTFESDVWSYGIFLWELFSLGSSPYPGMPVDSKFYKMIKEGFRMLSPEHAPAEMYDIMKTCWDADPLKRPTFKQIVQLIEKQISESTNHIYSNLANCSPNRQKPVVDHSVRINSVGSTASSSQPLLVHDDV

% of inhibition [1]: -9%
Compound: CN1Cc2nccc(-c3cn(C)nc3-c3ccc(F)cc3)c2C1=O

% of inhibition [2]: 33%
% of inhibition [3]: 11%
Compound: Cc1ccc(-c2ccc3c(ccc4sc5c(c43)NC[C@@H](C)NC5=O)n2)cn1

% of inhibition [4]: 0.492%
% of inhibition [5]: -7.3%
Compound: CC[C@@H]1[C@H](F)C(=O)N[C@@H]1COc1nccc2cc(C(N)=O)c(OC)cc12 [ZIMLOVISERTIB]

% of control ([6]; at 1 µM): 84%
% of control ([6]; at 5 µM): 66%
Compound: C=CC(=O)Nc1cccc(C(=O)Nc2ccc(Nc3cc(-c4[nH]c(SC)nc4C)ccn3)cc2)c1

Compound: COc1cc(Nc2nc(C)cc(-c3cnn4nc(OC)ccc34)n2)cc(C(F)(F)F)c1
% of control [7]: 100%

Compound: CN(C)C/C=C/C(=O)Nc1ccc(C(=O)N2CCCC(Nc3ncc(Cl)c(-c4c[nH]c5ccccc45)n3)C2)cc1 (configuration not stated)
% of control [8]: 90%

Compound: C=CC(=O)Nc1ccc(C(=O)Nc2[nH]nc3c2CN(C(=O)N[C@H](CN(C)C)c2ccccc2)C3(C)C)cc1
% of engagement [9]: 14.4%

Compound: CCC(=O)N1CCN(c2ccc(-n3c(=O)ccc4cnc5ccc(-c6cnc7ccccc7c6)cc5c43)cc2C(F)(F)F)CC1
% of control [10]: 100%

Compound: Cc1cc([C@@H](C)Nc2ccccc2C(=O)O)c2nc(N3CCOCC3)cc(=O)n2c1 [AZD-6482]
% of control [11]: 100%
